Test results from US8188059B2, “Compounds and methods for modulating expression of GCGR” (Isis Pharmaceuticals, Inc., priority 2006, dated 2012).

Experiments:
Assay type in all cases: in vivo, mouse
GCGR mRNA = GCGR mRNA levels in liver of C57/BL6 mice, single i.p. dose (Example 4, Tables 35-41); settings: 48 h, Table 35 comparison ISIS 148364 & ISIS 386626
Method: (§1) Eight-week old male C57/BL6 mice (Jackson Laboratory, Bar Harbor, Me.) were administered a single dose of GCGR oligonucleotide by intraperitoneal injection at a concentration of […]. Each dose group consisted of four animals. Shown in Table 31 are the sequences, motifs and conjugates of the GCGR antisense compounds used in this study. Bolded residues indicate 2′-O-methoxyethyl (2′-MOE) moieties. All compounds comprise phosphorothioate internucleoside linkages throughout and each cytosine is replaced with 5-methylcytosine. ISIS 386626, ISIS 386627 and ISIS 386628 further comprise a C16 conjugate group attached to the 2′-O position of the sugar via a diamide linkage (2′-OCH2C(═O)N(H)(CH2)4N(H)C(═O)—(CH2)15CH3). GCGR antisense compounds target published GCGR sequences, including Genbank® Accession No. BC031885.1 (SEQ ID NO: 7).
(§2) Mice were sacrificed 48 hours following injection to determine serum transaminase levels (Table 32); liver, white adipose tissue (WAT), spleen and kidney weight (Table 33); cholesterol, triglyceride and glucose levels (Table 34); GCGR mRNA levels (Tables 35-41); and full-length and total oligonucleotide concentration in liver and kidney (Table 42). Endpoints were assessed using methods described herein and well known to those of ordinary skill in the art. Data is included from a pre-treatment bleed (Pre-Bleed) and post-treatment bleed (Post-Bleed).
To determine whether the phenotypic changes shown above correlated with a decrease in GCGR mRNA, treated animals were evaluated for levels of target mRNA in liver by real time PCR according to methods described herein. Tables 35 to 41 show results from direct comparisons of the antisense compounds targeting GCGR nucleic acid for their effect on target expression. Results are expressed as percent of saline control.

[1] = Triglyceride, cholesterol and glucose levels, pre-bleed and post-bleed (Example 4, Table 34); parameters: TRIG Pre-Bleed / TRIG Post-Bleed / CHOL Pre-Bleed / CHOL Post-Bleed / Glucose Pre-Bleed / Glucose Post-Bleed: unit not given here; settings: C57/BL6 mice; for CHOL Pre-Bleed / Glucose Pre-Bleed / TRIG Pre-Bleed: pre-treatment bleed; for CHOL Post-Bleed / Glucose Post-Bleed / TRIG Post-Bleed: post-treatment bleed, 48 h
Method: as §1, §2

[2] = Total and full-length antisense compound concentrations in liver and kidney (Example 4, Table 42); settings: C57/BL6 mice; single i.p. dose; 48 h; dose not given
Method: as §1, §2
Treatment with the 2-10-2 MOE gapmers led to a significant dose-dependent decrease in GCGR mRNA expression. […] To determine whether the observed increase in efficiency with the short antisense compounds is due to an increase in antisense compound accumulation, full-length and total antisense compound concentration in the liver and kidney were determined.

[3] = ALT & AST levels, C57/BL6 mice (Example 4, Table 32); settings: for ALT Pre-Bleed / AST Pre-Bleed: pre-treatment bleed; for ALT Post-Bleed / AST Post-Bleed: 48 hours following injection
Method: as §1, §2

[4] = Organ weights: liver, white adipose tissue, spleen, kidney (Example 4, Table 33); settings: 48 h, C57/BL6 mice
Method: as §1, §2

**Q.** For “386626 (antisense GCTTCTCCATCATA; chemistry not fully specified) [compound 386626]”, which “GCGR mRNA levels in liver” value (GCGR mRNA; 6.25 mg/kg single i.p.) is on record?
**A.** Its value is 7% of saline control.

**Q.** And the “GCGR mRNA levels in liver” value (GCGR mRNA; 12.5 mg/kg single i.p.)?
**A.** Its value is 3% of saline control.

**Q.** What about the “GCGR mRNA levels in liver” value (GCGR mRNA; 25 mg/kg single i.p.) of the same substance?
**A.** The value was 8% of saline control.

**Q.** And the “GCGR mRNA levels in liver” value (GCGR mRNA; 50 mg/kg single i.p.)?
**A.** The value was 0% of saline control.

**Q.** What about the “CHOL Pre-Bleed” value ([1]; 6.25 mg/kg group) of the same substance?
**A.** The value was 85.

**Q.** And the “Glucose Pre-Bleed” value ([1]; 6.25 mg/kg group)?
**A.** The value was 222.

**Q.** And the “TRIG Pre-Bleed” value ([1]; 6.25 mg/kg group)?
**A.** Its value is 86.

**Q.** What about the “CHOL Post-Bleed” value ([1]; 6.25 mg/kg single i.p.) of the same substance?
**A.** Its value is 90.

**Q.** And the “Glucose Post-Bleed” value ([1]; 6.25 mg/kg single i.p.)?
**A.** The value was 221.

**Q.** What about the “TRIG Post-Bleed” value ([1]; 6.25 mg/kg single i.p.) of the same substance?
**A.** Its value is 162.

**Q.** What about the “CHOL Pre-Bleed” value ([1]; 12.5 mg/kg group) of the same substance?
**A.** Its value is 82.

**Q.** And the “Glucose Pre-Bleed” value ([1]; 12.5 mg/kg group)?
**A.** Its value is 232.

**Q.** And the “TRIG Pre-Bleed” value ([1]; 12.5 mg/kg group)?
**A.** The value was 100.

**Q.** What about the “CHOL Post-Bleed” value ([1]; 12.5 mg/kg single i.p.) of the same substance?
**A.** The value was 76.

**Q.** And the “Glucose Post-Bleed” value ([1]; 12.5 mg/kg single i.p.)?
**A.** Its value is 185.

**Q.** And the “TRIG Post-Bleed” value ([1]; 12.5 mg/kg single i.p.)?
**A.** Its value is 148.

**Q.** And the “CHOL Pre-Bleed” value ([1]; 25 mg/kg group)?
**A.** The value was 87.

**Q.** And the “Glucose Pre-Bleed” value ([1]; 25 mg/kg group)?
**A.** The value was 235.

**Q.** What about the “TRIG Pre-Bleed” value ([1]; 25 mg/kg group) of the same substance?
**A.** The value was 100.

**Q.** What about the “CHOL Post-Bleed” value ([1]; 25 mg/kg single i.p.) of the same substance?
**A.** The value was 72.

**Q.** And the “Glucose Post-Bleed” value ([1]; 25 mg/kg single i.p.)?
**A.** The value was 186.

**Q.** And the “TRIG Post-Bleed” value ([1]; 25 mg/kg single i.p.)?
**A.** Its value is 187.

**Q.** What about the “CHOL Pre-Bleed” value ([1]; 50 mg/kg group) of the same substance?
**A.** Its value is 79.

**Q.** And the “Glucose Pre-Bleed” value ([1]; 50 mg/kg group)?
**A.** The value was 239.

**Q.** What about the “TRIG Pre-Bleed” value ([1]; 50 mg/kg group) of the same substance?
**A.** The value was 87.

**Q.** What about the “CHOL Post-Bleed” value ([1]; 50 mg/kg single i.p.) of the same substance?
**A.** Its value is 57.

**Q.** What about the “Glucose Post-Bleed” value ([1]; 50 mg/kg single i.p.) of the same substance?
**A.** Its value is 179.

**Q.** And the “TRIG Post-Bleed” value ([1]; 50 mg/kg single i.p.)?
**A.** The value was 163.

**Q.** And the “Full-length antisense compound concentration, Kidney” value [2]?
**A.** Its value is 355 µg/g.

**Q.** And the “Full-length antisense compound concentration, Liver” value [2]?
**A.** Its value is 125 µg/g.

**Q.** What about the “Total antisense compound concentration, Kidney” value [2] of the same substance?
**A.** The value was 757 µg/g.

**Q.** What about the “Total antisense compound concentration, Liver” value [2] of the same substance?
**A.** Its value is 274 µg/g.

**Q.** And the “ALT Pre-Bleed” value ([3]; 6.25 mg/kg dose group)?
**A.** Its value is 26 IU/L.

**Q.** And the “AST Pre-Bleed” value ([3]; 6.25 mg/kg dose group)?
**A.** The value was 46 IU/L.

**Q.** What about the “ALT Pre-Bleed” value ([3]; 12.5 mg/kg dose group) of the same substance?
**A.** Its value is 28 IU/L.

**Q.** What about the “AST Pre-Bleed” value ([3]; 12.5 mg/kg dose group) of the same substance?
**A.** The value was 44 IU/L.

**Q.** And the “ALT Pre-Bleed” value ([3]; 25 mg/kg dose group)?
**A.** Its value is 30 IU/L.

**Q.** And the “AST Pre-Bleed” value ([3]; 25 mg/kg dose group)?
**A.** The value was 44 IU/L.

**Q.** What about the “ALT Pre-Bleed” value ([3]; 50 mg/kg dose group) of the same substance?
**A.** Its value is 28 IU/L.

**Q.** What about the “AST Pre-Bleed” value ([3]; 50 mg/kg dose group) of the same substance?
**A.** Its value is 48 IU/L.

**Q.** What about the “ALT Post-Bleed” value ([3]; single i.p. dose 6.25 mg/kg) of the same substance?
**A.** Its value is 42 IU/L.

**Q.** And the “AST Post-Bleed” value ([3]; single i.p. dose 6.25 mg/kg)?
**A.** Its value is 69 IU/L.

**Q.** And the “ALT Post-Bleed” value ([3]; single i.p. dose 12.5 mg/kg)?
**A.** The value was 34 IU/L.

**Q.** And the “AST Post-Bleed” value ([3]; single i.p. dose 12.5 mg/kg)?
**A.** The value was 90 IU/L.

**Q.** And the “ALT Post-Bleed” value ([3]; single i.p. dose 25 mg/kg)?
**A.** The value was 36 IU/L.

**Q.** And the “AST Post-Bleed” value ([3]; single i.p. dose 25 mg/kg)?
**A.** Its value is 92 IU/L.

**Q.** What about the “ALT Post-Bleed” value ([3]; single i.p. dose 50 mg/kg) of the same substance?
**A.** Its value is 40 IU/L.

**Q.** And the “AST Post-Bleed” value ([3]; single i.p. dose 50 mg/kg)?
**A.** Its value is 120 IU/L.

**Q.** What about the “Organ weight: Kidney” value ([4]; 6.25 mg/kg single i.p.) of the same substance?
**A.** The value was 100 % saline control.

**Q.** And the “Organ weight: Liver” value ([4]; 6.25 mg/kg single i.p.)?
**A.** Its value is 100 % saline control.

**Q.** What about the “Organ weight: Spleen” value ([4]; 6.25 mg/kg single i.p.) of the same substance?
**A.** Its value is 95 % saline control.

**Q.** What about the “Organ weight: WAT” value ([4]; 6.25 mg/kg single i.p.) of the same substance?
**A.** The value was 90 % saline control.

**Q.** And the “Organ weight: Kidney” value ([4]; 12.5 mg/kg single i.p.)?
**A.** Its value is 97 % saline control.

**Q.** What about the “Organ weight: Liver” value ([4]; 12.5 mg/kg single i.p.) of the same substance?
**A.** The value was 96 % saline control.

**Q.** And the “Organ weight: Spleen” value ([4]; 12.5 mg/kg single i.p.)?
**A.** The value was 114 % saline control.

**Q.** What about the “Organ weight: WAT” value ([4]; 12.5 mg/kg single i.p.) of the same substance?
**A.** The value was 73 % saline control.

**Q.** What about the “Organ weight: Kidney” value ([4]; 25 mg/kg single i.p.) of the same substance?
**A.** Its value is 103 % saline control.

**Q.** What about the “Organ weight: Liver” value ([4]; 25 mg/kg single i.p.) of the same substance?
**A.** Its value is 109 % saline control.

**Q.** What about the “Organ weight: Spleen” value ([4]; 25 mg/kg single i.p.) of the same substance?
**A.** The value was 120 % saline control.

**Q.** What about the “Organ weight: WAT” value ([4]; 25 mg/kg single i.p.) of the same substance?
**A.** The value was 97 % saline control.

**Q.** What about the “Organ weight: Kidney” value ([4]; 50 mg/kg single i.p.) of the same substance?
**A.** Its value is 104 % saline control.

**Q.** And the “Organ weight: Liver” value ([4]; 50 mg/kg single i.p.)?
**A.** The value was 112 % saline control.

**Q.** What about the “Organ weight: Spleen” value ([4]; 50 mg/kg single i.p.) of the same substance?
**A.** Its value is 130 % saline control.

**Q.** And the “Organ weight: WAT” value ([4]; 50 mg/kg single i.p.)?
**A.** Its value is 77 % saline control.
